Data as given in a melting point compilation (Tetko et al.; mined from patent text by program, amines drawn as free bases though some values may be those of a salt).

First: COc1cc(C=C2NC(=O)NC2=O)cc(OC)c1
Second: COc1cccc2c1C(C)C(=O)N2 (stereo not drawn)
The melting point of the first is higher: 285 to 287 °C for the first, 128 to 130 °C for the second.

First: Cc1cccnc1C(O)c1ccc(N)cc1 (stereo not drawn)
Second: Nc1ccc(Cl)cc1C(O)c1ccccc1OCc1ccccc1 (stereo not drawn)
The melting point of the first is higher: 153 to 154 °C for the first, 120 to 121 °C for the second.

Cc1nnc(-c2ccc3occ(-c4ccc(C=O)c(F)c4)c3c2)o1 and O=c1c2ccc(Cl)cc2[nH]n1-c1ccccc1F cannot be ordered by melting point: 207 to 208 °C for the first, 205 to 215 °C for the second.

First: COc1ccc(-c2ccc(NC(=O)C=Cc3ccc(CN4CCCC4)cc3)cc2)cc1
Second: COc1ccc(C(CN)C2CCCCC2O)cc1 (mixture of isomers)
The melting point of the first is higher: 199 to 200 °C for the first, 79 to 81 °C for the second.

First: CCCc1cc(C)nc(-c2cccc(Oc3ccccc3Cl)n2)n1
Second: Clc1nnc(Cl)c2cc3ccccc3cc12
The melting point of the first is lower: 73.7 °C for the first, 224 to 228 °C for the second.

Compared with c1cnc(-c2noc(C3CC3)n2)cn1, Nc1cncc(NC(=S)NC2CCCCC2)c1 is higher in melting point: 95 to 98 °C for the first, 114 to 116 °C for the second.

Compared with Cc1cc(F)c(N)cc1-n1cc(C(=O)O)c(=O)c2cc(F)c(N3CC(O)C3)c(C)c21, COc1cc(C2C3=C(COC3=O)Nc3ccc4nc(C)sc4c32)ccc1[N+](=O)[O-] (stereo not drawn) is higher in melting point: 147 to 151 °C for the first, 190 to 191 °C for the second.

Compared with CCOC(=O)CC[C@H](NC1CCC(CCC2CNc3nc(NC(=O)C(C)(C)C)nc(O)c3C2)CC1)C(=O)OCC (stereo partly drawn), CCOC(=O)c1c(COC(C)=O)cccc1S(=O)(=O)NC(C)(C)C is lower in melting point: 160 to 170 °C for the first, 81 to 82 °C for the second.

Compared with CCOC(=O)c1ccc(NC(=O)Cc2csc3nc(C(=O)NCc4cccc(OC)c4)[nH]c(=O)c23)cc1, CCOCCOc1ccc(CCNC(=O)c2ccccc2CC(=O)OCC)cc1 is lower in melting point: 222 to 223 °C for the first, 108 °C for the second.

First: CCCCC[C@H](O)c1ccc(Br)cc1
Second: BrCCCCCCOc1ccc(C2=NCCO2)cc1
The melting point of the first is lower: 70 to 71 °C for the first, 79 to 81 °C for the second.

Compared with OCc1ccc2c(n1)COC(c1ccccc1)O2 (stereo not drawn), Nc1nc(Cc2ccc(Br)cc2)cc(C2CCN(C(=O)c3ccc4c(c3)OCO4)CC2)n1 is higher in melting point: 85 to 89 °C for the first, 162 °C for the second.

First: CCOC(OCC)c1nc(N)nc(N)c1-c1ccc(Cl)cc1Cl
Second: CC(C)c1nc(CCO)n(C)c1Sc1cc(Cl)cc(Cl)c1
The melting point of the first is higher: 225 °C for the first, 177 to 178 °C for the second.

First: CCC1(CC)OC(=O)c2cc([N+](=O)[O-])ccc21
Second: CONS(=O)(=O)c1cccc(C)c1
The melting point of the first is higher: 98.5 to 100 °C for the first, 90 to 92 °C for the second.

Compared with COC(=O)c1cc(OCc2cc(SC)cc(SC)c2)cc(OCc2cc(SC)cc(SC)c2)c1, CCCc1c(N)c(N)cc2c(=O)cc(C(=O)OC)oc12 is higher in melting point: 121 to 122 °C for the first, 221 to 222 °C for the second.

Compared with CN(c1cccc2cc(-c3nccs3)[nH]c12)S(=O)(=O)c1ccsc1CO, Cc1cccc(C(=O)NC(C)C)c1NC(=O)c1cc(C(F)(F)F)nn1-c1ncccc1Cl is higher in melting point: 192 °C for the first, 194 to 196 °C for the second.

Compared with Clc1ncc(-c2nc(Cl)nc(Cl)c2Br)c(Cl)n1, O=C(Nc1c([N+](=O)[O-])cnn1-c1c(Cl)cc(C(F)(F)F)c(Cl)c1Cl)C(Cl)Cl is lower in melting point: 136 to 138 °C for the first, 112 to 120 °C for the second.

Compared with CC(O)=C(C#N)C(=O)Oc1ccc(Cl)cc1, N#Cc1cc(C#N)c(-c2ccc(Cl)cc2)[nH]1 is higher in melting point: 97 to 100 °C for the first, 235 to 240 °C for the second.

Compared with Cn1cc(C(=O)Nc2ccccc2-c2ccc(Br)cc2)c(C(F)(F)F)c1, NCc1nnc2n1-c1sc(Cl)cc1C(c1ccccc1Cl)=NC2 is higher in melting point: 163 to 164 °C for the first, 190 to 192 °C for the second.

Compared with Nc1ccc(CCCn2cnnc2)cc1, Oc1ncn(-c2cccc(F)n2)n1 is higher in melting point: 150 to 153 °C for the first, 290 °C for the second.

First: COC1(OCCc2nc(C(C)C)c(Sc3cc(Cl)cc(Cl)c3)n2C)C2CC3CC(C2)CC1C3 (stereo not drawn)
Second: COc1cc(N)c2nccc(C)c2c1F
The melting point of the first is lower: 74.5 to 76 °C for the first, 126 to 128 °C for the second.

First: Cc1ccc(S(=O)(=O)NCCNC(C)C)cc1
Second: O=C(O)CCCCCCCCNS(=O)(=O)c1ccccc1
The melting point of the first is lower: 76 to 78 °C for the first, 82 to 84 °C for the second.

For NC(=O)CCCSCc1nccc(NC(N)=NCC(F)(F)F)n1, the melting point was 126 to 128 °C.
